Experiment in all cases: relative viability (nuclei count vs DMSO), 5 days (fraction); higher = more cells survive
Compound in assay [1]: CC(C)C[C@H](NC(=O)[C@H](CCc1ccccc1)NC(=O)CN1CCOCC1)C(=O)N[C@@H](Cc1ccccc1)C(=O)N[C@@H](CC(C)C)C(=O)[C@@]1(C)CO1 [Carfilzomib] + Cc1nc(Nc2ncc(C(=O)Nc3c(C)cccc3Cl)s2)cc(N2CCN(CCO)CC2)n1 [Dasatinib] (partner 0.075 µM)
The gist of the method:
(§1)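 Five library-drug doses in √10 steps were combined with a fixed anchor-drug dose, or a single drug was given alone, by pin tool to lung cancer cell lines in 1536-well plates the day after seeding. Nuclei were stained and counted after 5 days. Relative viability is the nuclei count in treated wells over that in vehicle wells, taken as the median of duplicate plates.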

Compound in assay [2]: CC(C)C[C@H](NC(=O)[C@H](CCc1ccccc1)NC(=O)CN1CCOCC1)C(=O)N[C@@H](Cc1ccccc1)C(=O)N[C@@H](CC(C)C)C(=O)[C@@]1(C)CO1 [Carfilzomib] + CS(=O)(=O)N1CCN(Cc2cc3nc(-c4cccc5[nH]ncc45)nc(N4CCOCC4)c3s2)CC1 [Pictilisib] (partner 1 µM)
The gist of the method:
as §1

Compound in assay [3]: C[C@@H](Oc1cc(-c2cnn(C3CCNCC3)c2)cnc1N)c1c(Cl)ccc(F)c1Cl [Crizotinib] + O=C(c1cc(Cc2n[nH]c(=O)c3ccccc23)ccc1F)N1CCN(C(=O)C2CC2)CC1 [Olaparib] (partner 8 µM)
The procedure, abridged: as §1

Compound in assay [4]: O=C(c1cc(Cc2n[nH]c(=O)c3ccccc23)ccc1F)N1CCN(C(=O)C2CC2)CC1 [Olaparib] + CC1(C)CCC(c2ccc(Cl)cc2)=C(CN2CCN(c3ccc(C(=O)NS(=O)(=O)c4ccc(N[C@H](CCN5CCOCC5)CSc5ccccc5)c(S(=O)(=O)C(F)(F)F)c4)cc3)CC2)C1 [Navitoclax] (partner 0.5 µM)
The gist of the method: as §1

Compound in assay [5]: CC(C)C[C@H](NC(=O)[C@H](CCc1ccccc1)NC(=O)CN1CCOCC1)C(=O)N[C@@H](Cc1ccccc1)C(=O)N[C@@H](CC(C)C)C(=O)[C@@]1(C)CO1 [Carfilzomib] + CC(=O)c1c(C)c2cnc(Nc3ccc(N4CCNCC4)cn3)nc2n(C2CCCC2)c1=O [Palbociclib] (partner 0.5 µM)
The gist of the method: as §1

For NCI-H1793, the relative viability in assay [1] (first compound 0.003162 µM) was 0.507; in assay [1] (first compound 0.01 µM), 0.353; in assay [1] (first compound 0.03162 µM), 0.376; in assay [1] (first compound 0.1 µM), 0.389; in assay [2] (first compound 0.003162 µM) it was 0.328; in assay [2] (first compound 0.01 µM), 0.293. The relative viability was 0.335 in assay [2] (first compound 0.03162 µM); 0.248 in assay [2] (first compound 0.1 µM); 0.835 in assay [3] (first compound 0.1 µM); 0.903 in assay [3] (first compound 1 µM); 0.406 in assay [4] (first compound 0.08 µM); 0.421 in assay [4] (first compound 0.253 µM). Moreover, the relative viability in assay [4] (first compound 2.53 µM) is 0.416; in assay [4] (first compound 8 µM), 0.385; in assay [5] (first compound 0.001 µM), 0.338; in assay [5] (first compound 0.003162 µM) it was 0.402; in assay [5] (first compound 0.01 µM), 0.331; in assay [5] (first compound 0.03162 µM), 0.275. The relative viability in assay [5] (first compound 0.1 µM) came out at 0.197.

These data come from the supplement of paper PMC10307832.
